Assay results reported in patent publication US7169777B2, “Melanocortin receptor agonists” (Eli Lilly and Company, priority 2001, dated 2007).
pEC50, pKi: −log10 of the molar value. Counter-ions that a name gives are not always drawn. Like-named read-outs stand apart in the source and are kept apart here.

Columns and labels:
MC4 [1] = target: T1, MC4 (Homo sapiens, UniProt P32245); assay: Melanocortin receptor whole cell cAMP accumulation assay (MC4R); type: cell-based; set-up: expressed in transfected cells; host or cells: HEK 293 (stably transfected); details: for Relative Eff.: relative efficacy compared to NDP-alpha-MSH, defined as a 100% agonist
Method: Melanocortin Receptor Whole Cell cAMP Accumulation Assay
These are serially diluted in 100% DMSO. The compound plate is further diluted 1:200 in compound dilution buffer (HBSS-092, 1 mM Ascorbic Acid, 1 mM IBMX, 0.6% DMSO, 0.1% BSA). […] Transfer 20 μl from this plate into four PET 96-well plates (all assays are performed in duplicate for each receptor).
[…] cells stably transfected with the MC3R and MC4R were grown in DMEM containing 10% FBS and 1% Antibiotic/Antimycotic Solution. On the day of the assay the cells were dislodged with enzyme free cell dissociation solution and resuspended in cell buffer (HBSS-092, 0.1% BSA, 10 mM HEPES) at 1×e6 cells/ml. Add 40 μl of cells/well to the PET 96-well plates containing 20 ul diluted compound and control. Incubate @ 37° C. in a waterbath for 20 minutes. Stop the assay by adding 50 μl Quench Buffer (50 mM Na Acetate, 0.25% Triton X-100).
Radioligand binding assays were run in SPA buffer (50 mM Sodium Acetate, 0.1% BSA). The beads, antibody and radioligand were diluted in SPA buffer to provide sufficient volume for each 96-well plate. […] The plates were counted in a Wallac MicroBeta counter after a 12-hour incubation.
The data was converted to pmoles cAMP using a standard curve assayed under the same conditions. The data was analyzed using Activity Base software to generate agonist potencies (EC50) and percent relative efficacy data to NDP-aMSH.

MC4 [2] = target: T1, MC4; assay: Radioligand binding assay (125I-NDP-alpha-MSH competition, SPA, membranes of transfected HEK 293 cells); set-up: expressed in transfected cells; host or cells: HEK 293 (stably transfected), membrane preparation
Method: HEK 293 cells transfected with human or rat melanocortinin receptors are grown either as adherent monolayers or suspension culture. Monolayer cells are grown in roller bottle cultures at 37° C. and 5% CO2/air atmosphere in a 3:1 mixture of Dulbecco's modified Eagle medium (DMEM) and Ham's F12 containing 25 mM […], 100 units/ml penicillin G, 100 microgram/ml streptomyocin, 250 nanogram/ml amphoterin B, 300 microgram/ml genticin and supplemented with 5% fetal bovine serum. […] Cells are harvested by centrifugation, washed in PBS, and pellets are stored frozen at −80° C. until membrane preparations.
The cell pellets are resuspended in 10 volumes of membrane preparation buffer (i.e., 1 g pellet to 10 ml buffer) having the following composition: 50 mM Tris pH 7.5 @ 4° C., 250 mM sucrose, 1 mM MgCl2, Complete® EDTA-free protease inhibitor tablet (Boehringer Mannheim), and 24 micrograms/ml DNase I (Sigma, St. Louis, Mo.). The cells are homogenized with a motor-driven dounce using 20 strokes, and the homogenate is centrifuged at 38,000×g at 4° C. for 40 minutes. The pellets are resuspended in membrane preparation buffer at a concentration of 2.5–7.5 mg/ml and 1 milliliter aliquots of membrane homogenates are quickly frozen in liquid nitrogen and then stored at −80° C.
Solutions of a compound of formula I (300 picomolar to 30 micromolar) or unlabelled NDP-alpha-MSH (1 picomolar to 100 nanomolar) are added to 150 microliters of membrane binding buffer to yield final concentrations (listed in parantheses). The membrane binding buffer has the following composition: 25 mM HEPES pH 7.5; 10 mM CaCl2; 0.3% BSA). […] Additionally, fifty microliters of SPA beads (5 mg/ml) are added and the resulting mixture is agitated briefly and incubated for 10 hours at room temperature. The radioactivity is quantified in a Wallac Trilux Microplate Scintillation counter. IC50 values obtained in competition assays are converted to affinity constants (Ki values) using the Cheng-Prusoff equation: Ki=IC50/(1+D/Kd).

rodents = details: injected intracerebroventricularly (ICV); NPY, ob/ob, agouti, fasted models; cited from earlier work
[3] = MC4 agonist potency, read-out: MC4 EC50
[4] = 125I-NDP-alpha-MSH competition, Ki from IC50 by Cheng-Prusoff, read-out: MC4 Binding Ki

T1 sequence (P32245 whole entry): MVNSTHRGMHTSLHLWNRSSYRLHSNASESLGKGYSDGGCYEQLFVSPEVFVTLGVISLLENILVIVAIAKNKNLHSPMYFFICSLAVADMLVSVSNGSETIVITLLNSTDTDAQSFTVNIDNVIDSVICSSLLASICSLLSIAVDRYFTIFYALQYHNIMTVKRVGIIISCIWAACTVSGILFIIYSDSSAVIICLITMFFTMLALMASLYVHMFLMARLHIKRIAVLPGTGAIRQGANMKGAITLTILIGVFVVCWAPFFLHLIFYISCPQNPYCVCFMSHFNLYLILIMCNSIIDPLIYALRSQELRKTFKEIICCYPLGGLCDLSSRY

Compound	pEC50 (MC4 [1])	Relative Eff. (MC4 [1])	pKi (MC4 [2])	pEC50 (MC4 [1]; [3])	pKi (MC4 [2]; [4])	food intake (rodents)
O=C(CC1NCc2ccccc21)N[C@H](Cc1ccc(Cl)cc1)C(=O)N1CCN(C(CC2CCCCC2)CN2CCOCC2)CC1 (mixture of isomers) [Example N38, N-{1-(4-chloro-benzyl)-2-[4-(1-cyclohexylmethyl-2-morpholine-4-yl-ethyl)-piperazin-1-yl]-2-oxo-ethyl}-2-(2,3-dihydro-1H-isoindol-1-yl)-acetamide tri(trifluoroacetate) salt]	7.16	115.6	8.00			
CC(C)CN(CC(C1CCCCC1)N1CCN(C(=O)C(Cc2ccc(Cl)cc2)NC(=O)CC2NCc3ccccc32)CC1)S(C)(=O)=O (single isomer, unassigned) [Example N71, N-(1-(4-Chloro-benzyl)-2-{4-[1-cyclohexyl-2-(isobutyl-methanesulfonyl-amino)-ethyl]-piperazin-1-yl}-2-oxo-ethyl)-2-(2,3-dihydro-1H-isoindol-1-yl)-acetamide dihydrochloride salt]		102.6		8.08	7.95	
CCN(CC)CC(c1ccccc1F)N1CCN(C(=O)[C@@H](Cc2ccc(Cl)cc2)NC(=O)[C@H]2Cc3ccccc3C(C)(C)N2)CC1 (some centres unmarked) [Compd 814]		108.6		6.90	7.74	
CC(C)CC(CC(C)C)N1CCN(C(=O)[C@@H](Cc2ccc(Cl)cc2)NC(=O)CC2NCc3ccccc32)CC1.Cl.Cl (some centres unmarked) [Compd 3251]		67.0		7.12	8.24	
SHU-9119						reverses this effect and can induce hyperphagia
melanotanin-II [MT-II]						reduces food intake
